{"source": "patent US4698350A", "about": "“1-ethyl-6-fluoro-1,4-dihydro- 7-(2,6-dimethyl-4-pyridinyl)-4-oxo-3-quinolinecarboxylic acid and antibacterial use thereof” (Sterling Drug Inc., priority 1984, dated 1987)", "key": {"[1]": {"test_system": "B. melaninogenicus", "assay": "Agar dilution MIC, anaerobic microorganisms", "assay_type": "cell-based", "conditions": "48 h; B. melaninogenicus; read-out: MIC", "experimental": "(§1) 1. Maintenance. Prior to use, all strains were maintained in the lyophilized state. During the study, cultures were examined on blood agar basal medium supplemented with 5.0% (v/v) defibrinated rabbit blood. Culture transfer was accomplished weekly with all cultures being incubated in an anaerobic atmosphere (GasPak jar; BBL).\n(§2) 2. Agar Medium. The basal test medium consisted of trypticase soy agar (40 g), yeast extract (1 g), glucose (2 g) and 960 ml of distilled water pH 7.2. [Mashimo et al., J. Clin. Micro. 17, 187-191 (1983)]. Subsequent to sterilization and cooling to 50° C., the medium was supplemented with 4% (v/v) defibrinated rabbit blood and 0.5 μg/ml menadione (Vitamin K3) The agent under evaluation was also added at this time to the concentration desired. Subsequent to pouring of the plates, they were permitted to dry at 4° C. for 24 hr.\n(§3) 3. Determination of Agent MIC. The minimal inhibitory concentration (MIC) of the various test agents was determined using an agar dilution technique. Agents and appropriate reference compounds were added to achieve a series of concentrations ranging between 32 μg/ml and 0.007 μg/ml. The inocula were prepared from 96-hr. cultures grown on the maintenance medium. Subsequent to a purity evaluation, colonies were removed and suspended in trypticase soy broth supplemented with 5 μg/ml menadione and 2% lysed rabbit blood filtrate to achieve an OD650 of 0.1 (this corresponded to approximately 10^8 cells/ml). Cultures were inoculated aerobically on the modified trypticase soy blood agar plates by use of a Steer's replicator (which delivers about 10^5 cells per spot). The plates were allowed to dry for a time not exceeding 30 min. and then incubated at 37° C. under an atmosphere of […], 10% H2 and 5% CO2 maintained in an anaerobic chamber (Coy Manufacturing Co.) for 48 hr. The MIC was defined as the lowest concentration completely inhibiting growth.\n(§4) Tetracycline stock solutions (1 mg/ml) were made subsequent to dissolution in water. Stock solutions (1 mg/ml) of the remaining test compounds were made subsequent to dissolution in 1/10 N NaOH."}, "[2]": {"test_system": "Wolinella recta", "assay": "Agar dilution MIC, anaerobic microorganisms", "assay_type": "cell-based", "conditions": "Campylobacter rectus, 48 h", "experimental": "as §1, §2, §3, §4"}, "[3]": {"test_system": "Eikenella corrodens", "assay": "Agar dilution MIC, anaerobic microorganisms", "assay_type": "cell-based", "conditions": "48 h, read-out: MIC", "experimental": "as §1, §2, §3, §4"}, "[4]": {"test_system": "A. viscosus", "assay": "Agar dilution MIC, anaerobic microorganisms", "assay_type": "cell-based", "conditions": "Actinomyces viscosus, 48 h; A. viscosus; read-out: MIC", "experimental": "as §1, §2, §3, §4"}, "[5]": {"test_system": "A. actinomycetemcomitans", "assay": "Agar dilution MIC, anaerobic microorganisms", "assay_type": "cell-based", "conditions": "Aggregatibacter actinomycetemcomitans, 48 h; A. actinomycetemcomitans; read-out: MIC", "experimental": "as §1, §2, §3, §4"}, "[6]": {"test_system": "F. nucleatum", "assay": "Agar dilution MIC, anaerobic microorganisms", "assay_type": "cell-based", "conditions": "Fusobacterium nucleatum, 48 h; F. nucleatum; read-out: MIC", "experimental": "as §1, §2, §3, §4"}, "[7]": {"test_system": "Capnocytophaga suptigena", "assay": "Agar dilution MIC, anaerobic microorganisms", "assay_type": "cell-based", "conditions": "48 h; Capnocytophaga suptigena; read-out: MIC", "experimental": "as §1, §2, §3, §4"}, "[8]": {"test_system": "B. gingivalis", "assay": "Agar dilution MIC, anaerobic microorganisms", "assay_type": "cell-based", "conditions": "Porphyromonas gingivalis, 48 h; B. gingivalis; read-out: MIC", "experimental": "as §1, §2, §3, §4"}, "[9]": {"test_system": "B. intermedius", "assay": "Agar dilution MIC, anaerobic microorganisms", "assay_type": "cell-based", "conditions": "Prevotella intermedia, 48 h; B. intermedius; read-out: MIC", "experimental": "as §1, §2, §3, §4"}, "[10]": {"test_system": "B. oralis", "assay": "Agar dilution MIC, anaerobic microorganisms", "assay_type": "cell-based", "conditions": "Hoylesella oralis, 48 h; B. oralis; read-out: MIC", "experimental": "as §1, §2, §3, §4"}, "[11]": {"test_system": "B. fragilis", "assay": "Agar dilution MIC, anaerobic microorganisms", "assay_type": "cell-based", "conditions": "Bacteroides fragilis, 48 h; B. fragilis; read-out: MIC", "experimental": "as §1, §2, §3, §4"}, "[12]": {"test_system": "F. polymorphum", "assay": "Agar dilution MIC, anaerobic microorganisms", "assay_type": "cell-based", "conditions": "48 h; F. polymorphum; read-out: MIC", "experimental": "as §1, §2, §3, §4"}, "[13]": {"test_system": "Campylobacter sputorum", "assay": "Agar dilution MIC, anaerobic microorganisms", "assay_type": "cell-based", "conditions": "48 h", "experimental": "as §1, §2, §3, §4"}, "[14]": {"test_system": "penicillin-sensitive and methicillin-resistant Staphylococcus aureus strains", "assay": "Mouse protection tests, S. aureus infections", "assay_type": "in vivo, ICR mice; Staphylococcus aureus", "conditions": "subcutaneous and oral routes, mice", "experimental": "(§5) ICR mice, female, 18-20 grams each.\n(§6) Solutions of Win 52,522 and Win 35,439 were prepared by dissolving the appropriate weight of drug in 0.3 to 0.4 ml of 1 N NaOH and then bringing the solutions to the desired volume with distilled water. Methicillin and vancomycin were dissolved directly in distilled water.\n(§7) Mice were inoculated intraperitoneally with 0.5 ml of the bacterial test inoculum.\n(§8) Deaths were recorded daily for seven days for all tests. Fifty percent protective dose values (PD50's) were calculated using probit analysis [SAS Users Guide: Statistics, 1982 Edition, SAS Institute, Inc., Cary, N.C.]."}, "[15]": {"test_system": "all thirteen of the target anaerobic microorganisms", "assay": "Antimicrobial activity against anaerobic microorganisms", "assay_type": "cell-based", "experimental": "as §1, §2, §3, §4"}, "[16]": {"test_system": "Escherichia coli Vogel", "assay": "Mouse protection test, E. coli Vogel infection", "assay_type": "in vivo, ICR mice; Escherichia coli", "conditions": "for ED50: Escherichia coli, 168 h, once one-half hour postinfection, read-out: Protective Dose 50% (95% Confidence Limits); for times more efficacious than Win 35,439: E. coli infection", "experimental": "as §5, §6\nThe culture was inoculated into 10 ml of Brain Heart Infusion broth and grown statically for 16 hours at 37° C. Fresh tubes of the same broth were inoculated with 0.1 ml portions of the 16 hour broth culture and incubation continued for 5 hours at 37° C. The 5 hour broth culture was finally diluted with saline to provide the test inoculum containing 4.0×10^7 cells/ml.\nas §7\nMice were medicated subcutaneously or orally once (0.5 ml) one-half hour postinfection.\nas §8"}}, "note": "Entries after “also recorded” stand apart in the source; their conditions may differ. Where two headings read alike, the source gives them in different places."}
{"smiles": "CCn1cc(C(=O)O)c(=O)c2cc(F)c(-c3cc(C)nc(C)c3)cc21", "note": "[Win 52,522, 1-ethyl-6-fluoro-1,4-dihydro-7-(2,6-dimethyl-4-pyridinyl)-4-oxo-3-quinolinecarboxylic acid]", "values": [{"measurement": "MIC", "setting": "[1]", "result": 1, "unit": "µg/mL"}, {"measurement": "MIC", "setting": "[2]", "result": 0.12, "unit": "µg/mL"}, {"measurement": "MIC", "setting": "[3]", "result": 0.5, "unit": "µg/mL"}, {"measurement": "MIC", "setting": "[4]", "result": 1, "unit": "µg/mL"}, {"measurement": "MIC", "setting": "[5]", "result": 0.12, "unit": "µg/mL"}, {"measurement": "MIC", "setting": "[6]", "result": 0.5, "unit": "µg/mL"}, {"measurement": "MIC", "setting": "[7]", "result": 0.06, "unit": "µg/mL"}, {"measurement": "MIC", "setting": "[8]", "result": 2, "unit": "µg/mL"}, {"measurement": "MIC", "setting": "[9]", "result": 0.06, "unit": "µg/mL"}, {"measurement": "MIC", "setting": "[10]", "result": 4, "unit": "µg/mL"}, {"measurement": "MIC", "setting": "[11]", "result": 4, "unit": "µg/mL"}, {"measurement": "MIC", "setting": "[12]", "result": 0.5, "unit": "µg/mL"}, {"measurement": "MIC", "setting": "[13]", "result": 8, "unit": "µg/mL"}, {"measurement": "in vivo efficacy (in words)", "setting": "[14]", "result": "more efficacious than Win 35,439; also recorded: very potent antibacterial agent"}, {"measurement": "antimicrobial activity (in words)", "setting": "[15]", "result": "high activity against all thirteen of the target anaerobic microorganisms; also recorded: extremely active against a number of anaerobic microorganisms; also recorded: markedly superior to both Win 35,213 and 35,439; also recorded: broad spectrum of antimicrobial activity, comparing favorably with the currant antibiotic of choice, tetracycline"}, {"measurement": "Survivors/Total", "setting": "[16]; 1.56 mg/kg po", "result": "0/10"}, {"measurement": "Survivors/Total", "setting": "[16]; 1.56 mg/kg sc", "result": "0/10"}, {"measurement": "Survivors/Total", "setting": "[16]; 3.13 mg/kg po", "result": "0/10"}, {"measurement": "Survivors/Total", "setting": "[16]; 3.13 mg/kg sc", "result": "0/10"}, {"measurement": "Survivors/Total", "setting": "[16]; 6.25 mg/kg po", "result": "2/10"}, {"measurement": "Survivors/Total", "setting": "[16]; 6.25 mg/kg sc", "result": "8/10"}, {"measurement": "Survivors/Total", "setting": "[16]; 12.5 mg/kg po", "result": "9/10"}, {"measurement": "Survivors/Total", "setting": "[16]; 12.5 mg/kg sc", "result": "10/10"}, {"measurement": "Survivors/Total", "setting": "[16]; 25 mg/kg po", "result": "10/10"}, {"measurement": "Survivors/Total", "setting": "[16]; 25 mg/kg sc", "result": "10/10"}, {"measurement": "ED50", "setting": "[16]; po, po", "result": 8.2, "unit": "mg/kg"}, {"measurement": "ED50", "setting": "[16]; sc, sc", "result": "~5.2", "unit": "mg/kg"}, {"measurement": "times more efficacious than Win 35,439", "setting": "[16]; p.o.", "result": 2.0, "unit": "times"}, {"measurement": "times more efficacious than Win 35,439", "setting": "[16]; s.c.", "result": 2.6, "unit": "times"}, {"measurement": "PD50 values relative to those of Win 35,439", "setting": "[16]; subcutaneous and oral", "result": "approximately one-half"}]}
{"smiles": "CCn1cc(C(=O)O)c(=O)c2ccc(-c3cc(C)nc(C)c3)cc21", "note": "[Win 35,439, 1-ethyl-1,4-dihydro-7-(2,6-dimethyl-4-pyridinyl)-4-oxo-3-quinolinecarboxylic acid]", "values": [{"measurement": "MIC", "setting": "[1]", "result": 8, "unit": "µg/mL"}, {"measurement": "MIC", "setting": "[2]", "result": 0.5, "unit": "µg/mL"}, {"measurement": "MIC", "setting": "[3]", "result": 2, "unit": "µg/mL"}, {"measurement": "MIC", "setting": "[4]", "result": 8, "unit": "µg/mL"}, {"measurement": "MIC", "setting": "[5]", "result": 0.25, "unit": "µg/mL"}, {"measurement": "MIC", "setting": "[6]", "result": 4, "unit": "µg/mL"}, {"measurement": "MIC", "setting": "[7]", "result": 0.5, "unit": "µg/mL"}, {"measurement": "MIC", "setting": "[8]", "result": "> 10", "unit": "µg/mL"}, {"measurement": "MIC", "setting": "[9]", "result": 0.25, "unit": "µg/mL"}, {"measurement": "MIC", "setting": "[10]", "result": "> 10", "unit": "µg/mL"}, {"measurement": "MIC", "setting": "[11]", "result": "> 10", "unit": "µg/mL"}, {"measurement": "MIC", "setting": "[12]", "result": 4, "unit": "µg/mL"}, {"measurement": "MIC", "setting": "[13]", "result": "> 10", "unit": "µg/mL"}, {"measurement": "Survivors/Total", "setting": "[16]; 3.13 mg/kg po", "result": "0/10"}, {"measurement": "Survivors/Total", "setting": "[16]; 3.13 mg/kg sc", "result": "1/10"}, {"measurement": "Survivors/Total", "setting": "[16]; 6.25 mg/kg po", "result": "0/10"}, {"measurement": "Survivors/Total", "setting": "[16]; 6.25 mg/kg sc", "result": "0/10"}, {"measurement": "Survivors/Total", "setting": "[16]; 12.5 mg/kg po", "result": "2/10"}, {"measurement": "Survivors/Total", "setting": "[16]; 12.5 mg/kg sc", "result": "4/10"}, {"measurement": "Survivors/Total", "setting": "[16]; 25 mg/kg po", "result": "9/10"}, {"measurement": "Survivors/Total", "setting": "[16]; 25 mg/kg sc", "result": "10/10"}, {"measurement": "ED50", "setting": "[16]; po, po", "result": 16.5, "unit": "mg/kg"}, {"measurement": "ED50", "setting": "[16]; sc, sc", "result": 13.5, "unit": "mg/kg"}]}
